The results in this text go back to paper PMC9570088, “Phytochemicals with Chemopreventive Activity Obtained from the Thai Medicinal Plant Mammea siamensis (Miq.) T. Anders.: Isolation and Structure Determination of New Prenylcoumarins with Inhibitory Activity against Aromatase” (International Journal of Molecular Sciences, 2022).

Broadly, the pIC50 is −log10 of the IC50, conventionally taken in molar units. As usually defined, the pKi is the negative decadic logarithm of the Ki, by convention in mol/L.

In experiment [1] the target is T1, human recombinant aromatase (Homo sapiens, UniProt P11511).
T1 construct: purchased BD Biosciences (Heidelberg, Germany)
T1 sequence (P11511 1-503): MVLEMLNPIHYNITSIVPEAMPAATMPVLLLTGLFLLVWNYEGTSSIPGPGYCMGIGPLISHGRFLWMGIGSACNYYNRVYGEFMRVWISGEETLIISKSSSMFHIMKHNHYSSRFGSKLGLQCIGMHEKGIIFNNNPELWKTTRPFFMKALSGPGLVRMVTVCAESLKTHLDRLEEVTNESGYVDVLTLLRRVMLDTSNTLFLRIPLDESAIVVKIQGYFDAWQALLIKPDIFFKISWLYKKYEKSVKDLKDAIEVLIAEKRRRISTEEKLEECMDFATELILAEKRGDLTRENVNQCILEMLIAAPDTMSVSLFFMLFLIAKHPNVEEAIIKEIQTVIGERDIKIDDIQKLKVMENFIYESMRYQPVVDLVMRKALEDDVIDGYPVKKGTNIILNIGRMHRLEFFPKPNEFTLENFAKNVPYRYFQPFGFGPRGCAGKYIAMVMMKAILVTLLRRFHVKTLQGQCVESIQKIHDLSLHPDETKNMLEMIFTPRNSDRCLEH
Description: Inhibitory effects against human recombinant aromatase (DBF fluorescence assay). The class given is biochemical. To be noted: substrate DBF; mean, N = 3. How it is done: Dibenzylfluorescein (DBF) and human CYP19 + P450 reductase SUPERSOMES (human recombinant aromatase) were purchased from BD Biosciences (Heidelberg, Germany) and testosterone from Tokyo Chemical Industry Co., Ltd. (Tokyo, Japan). The other chemicals used in this study were purchased from Wako Pure Chemical Industries, Co., Ltd. (Osaka, Japan).
The experiments were performed according to a previously described method. Briefly, a test sample was dissolved in dimethyl sulfoxide (DMSO), and the solution was diluted with potassium phosphate buffer (50 mM, pH 7.4) containing MgCl2 (0.5 mM) to obtain the test sample solution (concentration of DMSO: 2%). An enzyme/substrate solution in the buffer (20 µL, 1.6 µM DBF, 8 nM human recombinant aromatase) and the test sample solution (20 µL) were mixed in a 96-well half-area black microplate (Greiner Bio-One, Frickenhausen, Germany) at 37 °C for 10 min. The enzymatic reaction was initiated by adding NADPH solution (40 µL, 500 µM) at 37 °C for 30 min. After 30 min of incubation, NaOH (30 µL, 2 mM) was added, and the reaction mixture was incubated at 37 °C for 2 h to induce fluorescent signals (final DMSO concentration, 0.5%; aromatase, 2 nM; and NADPH, 250 µM). Fluorescence was measured using a fluorescence microplate reader (SH-9000, CORONA […] Co., Ltd., Ibaraki, Japan) at an excitation wavelength of 435 nm and emission wavelength of 535 nm. Experiments were performed in triplicate, and the IC50 values were determined graphically.

Experiment [2] addresses T1, human recombinant aromatase. Nature of the experiment: Kinetic analysis of inhibitory activity against human recombinant aromatase using Lineweaver-Burk plots (testosterone substrate, estradiol EIA). The class given is biochemical. To be noted: for mode of inhibition of aromatase: Lineweaver–Burk plots; for pKi: testosterone 0.4–4 µM as substrate, secondary plot of Lineweaver–Burk, N = 3. From the text:
In the assay system, we fixed the enzyme concentration, changed the substrate concentration, and obtained the kinetic parameters of the enzyme-catalyzed reaction using Lineweaver–Burk double reciprocal plot 1/[V] vs. 1/[S]. The inhibition constant Ki indicates the potency of an inhibitor and equals the concentration required to produce half-maximal inhibition. The Ki value was obtained from the intersection of the secondary plot with the x-axis (apparent Km/Vmax vs. inhibitor).
Experiments were performed using a previously described protocol, modified by using various concentrations of testosterone (0.4–4 µM) as substrates instead of DBF and the plate was heated at 37 °C for 15 min. After the reaction, the enzyme was inactivated by heating in a boiling water bath for 2 min. An estradiol EIA kit (Oxford Biomedical Research, Inc., Oxford, MI, USA) was used to develop an estradiol standard curve to determine the concentration of estradiol produced and to correlate the concentration of estradiol with the reaction velocity. The mode of inhibition was analyzed using the Lineweaver–Burk plot of the inverse of the reaction velocity of estradiol plotted on the vertical axis and the inverse of the final concentration of the substrate on the horizontal axis, with and without the test substance (Figure S27).

SMILES strings stand for the structures. pIC50, pKi: −log10 of the molar value. Entries after “also recorded” stand apart in the source; their conditions may differ.

Regarding `C=C(C)c1cc2c(o1)c(C(=O)CCC)c(O)c1c(-c3ccccc3)cc(=O)oc12` [compound 4, mammeasin N], in experiment [1], the pIC50 was 4.92. In experiment [2], the “mode of inhibition of aromatase” value is recorded as “competitive inhibition; also recorded: competitive inhibitors” and the pKi was 5.59.
As for `C=C(C)c1cc2c(o1)c(C(=O)CC(C)C)c(O)c1c(-c3ccccc3)cc(=O)oc12` [compound 5, mammeasin O], the pIC50 in experiment [1] is 5.04. For the same compound, in experiment [2], the “mode of inhibition of aromatase” value is recorded as “competitively inhibit; also recorded: competitive inhibition; also recorded: competitive inhibitors” and the negative logarithm of the Ki (pKi) is 5.64.
As to `CC[C@H](O)c1cc(=O)oc2c(C(=O)CC(C)C)c(O)c3c(c12)OC(C)(CCC=C(C)C)C=C3` (stereo partly shown) [compound 10, Mammeasin E], the pIC50 in experiment [1] is 4.95. Also, in experiment [2], the pKi was 5.15.
The like results for `CCC(C)C(=O)c1c(O)c2c(c3c([C@@H](O)CC)cc(=O)oc13)OC(C)(CCC=C(C)C)C=C2` (stereo partly shown) [compound 11, Mammeasin F] were, in that order, 4.91 and 4.91.
For `CCCC(=O)c1c(O)c2c(c3c([C@@H](O)CC)cc(=O)oc13)OC(C)(CCC=C(C)C)C=C2` (stereo partly shown) [compound 23, Kayaessamin I], in that order: 5.03 and 4.83.
The like results for `CCCC(=O)c1c(O)c(CC=C(C)C)c(O)c2c(C(CC)OC(C)=O)cc(=O)oc12` (stereo not shown) [compound 38, Mammea E/BC] were, in that order, 4.63 and 4.95.
Regarding `CC(C)CC(=O)c1c2c(c3oc(=O)cc(-c4ccccc4)c3c1O)CC(C(C)(C)O)O2` (stereo not shown) [compound 39, Mammea A/AA cyclo F], in experiment [1], the pIC50 is 5.04. The pKi in experiment [2] is 5.37.
